Laboratory results published in the supplement of paper PMC10011410.
± gives the standard deviation of the averaged measurements.

Assays:
[1] = tested on: U-2 OS; assay: AUC of culture confluence over time (live-cell imaging) (AUC (confluence % x time)); higher = more confluent culture (less growth inhibition)
Method: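 Live-cell Incucyte imaging of U-2 OS cells in F-12K medium. Compounds were tested mostly at 5, 10 and 20 uM, and cells were imaged every 4 h for up to 60 h. Value is the area under the curve of phase-contrast confluence over time.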

[2] = tested on: U-2 OS; assay: relative cell count vs DMSO (cell painting) (fraction of DMSO control); higher = more cells remaining (less cytotoxic); details: 24 h
Method: (§1)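 Cell painting in U-2 OS cells (384-well, about 1,500 cells per well), compound exposure 24 h, usually six 2-fold concentrations from 20 to 0.625 uM (some compounds higher or lower). Relative cell count is the cell number per well relative to DMSO wells. Activity score is the Mahalanobis distance of the morphological profile from DMSO control wells. Mean of four technical replicate plates.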

[3] = tested on: U-2 OS; assay: cell painting activity score (Mahalanobis distance from DMSO wells); higher = stronger morphological phenotype; details: 24 h
Method: as §1

Row | SMILES | AUC of culture confluence over time ([1]; 5 µM) | AUC of culture confluence over time ([1]; 10 µM) | AUC of culture confluence over time ([1]; 20 µM) | relative cell count ([2]; 0.625 µM) | relative cell count ([2]; 1.25 µM) | relative cell count ([2]; 2.5 µM) | relative cell count ([2]; 5 µM) | relative cell count ([2]; 10 µM) | relative cell count ([2]; 20 µM) | cell painting activity score ([3]; 0.625 µM) | cell painting activity score ([3]; 1.25 µM) | cell painting activity score ([3]; 2.5 µM) | cell painting activity score ([3]; 5 µM) | cell painting activity score ([3]; 10 µM) | cell painting activity score ([3]; 20 µM) | AUC of culture confluence over time ([1]; 1.25 µM) | relative cell count ([2]; 0.019532 µM) | relative cell count ([2]; 0.07812 µM) | relative cell count ([2]; 0.3124 µM) | cell painting activity score ([3]; 0.019532 µM) | cell painting activity score ([3]; 0.07812 µM) | cell painting activity score ([3]; 0.3124 µM)
1 | C[C@@]1(CO)[C@H](O)CC[C@@]2(C)[C@H]1CC[C@H]1C[C@@H]3C[C@@]12CC[C@]3(O)CO | 30.1 | 29 | 28.6 | 0.886 | 0.788 | 0.683 | 0.659 | 0.621 | 0.622 | 13.5 | 12.7 | 14.8 | 14.8 | 16.2 | 15.8 |  |  |  |  |  |  | 
2 | C[C@@H]1C[C@@H]([C@H](O)CC2CC(=O)NC(=O)C2)C(=O)[C@@H](C)C1 | 21 | 19.4 | 20.1 | 0.783 | 0.651 | 0.576 | 0.534 | 0.475 | 0.479 | 9.38 | 9.5 | 11.4 | 11.5 | 12.8 | 14.2 |  |  |  |  |  |  | 
3 | CCc1c2c(nc3ccc(OC(=O)N4CCC(N5CCCCC5)CC4)cc13)-c1cc3c(c(=O)n1C2)COC(=O)[C@]3(O)CC.Cl | 31.5 | 25.7 | 22 | 0.924 | 0.783 | 0.705 | 0.614 | 0.554 | 0.566 | 7.03 | 8.8 | 9.65 | 10.7 | 11 | 11.2 |  |  |  |  |  |  | 
4 | C[C@@H]1O[C@@H](O[C@H]2[C@H](O[C@H]3CC[C@@]4(C)[C@@H](CC[C@]5(C)[C@@H]4CC=C4[C@@H]6CC(C)(C)CC[C@]6(C(=O)O)CC[C@]45C)[C@]3(C)CO)OC[C@H](O[C@@H]3O[C@H](CO)[C@@H](O)[C@H](O)[C@H]3O)[C@@H]2O)[C@H](O)[C@H](O)[C@H]1O | 14.5 | 16.5 | 13 | 0.916 | 0.143 | 0.0325 | 0.0427 | 0.0257 | 0.015 | 4.55 | 9.15 | 31.1 | 31.3 | 33.6 | 35.9 |  |  |  |  |  |  | 
5 | CC1OC2=C(C(=O)C(=O)c3ccccc32)C1(C)C (stereo not given) | 19.5 | 18.5 | 16 | 0.845 | 0.561 | 0.299 | 0.207 | 0.14 | 0.134 | 15 | 17.1 | 20.7 | 25.1 | 33.8 | 34.2 |  |  |  |  |  |  | 
6 | C[C@@]12C(=O)OC(=O)[C@]1(C)[C@H]1CC[C@@H]2O1 | 32.8 | 33.9 | 19.5 | 0.887 | 0.831 | 0.869 | 0.887 | 0.918 | 0.792 | 13.8 | 14.1 | 13.8 | 13.3 | 13.5 | 9.67 |  |  |  |  |  |  | 
7 | Cl.Nc1ccc(O)c2ccccc12 | 31.2 | 23.5 | 18 | 0.931 | 0.895 | 0.888 | 0.75 | 0.623 | 0.09 | 8.19 | 6.08 | 9.4 | 14.3 | 15.3 | 30.8 |  |  |  |  |  |  | 
8 | CCOC(=O)C1=C(C)NC(=S)N[C@@H]1c1cccc(O)c1 | 48.6 | 50.3 | 44.1 | 0.936 | 0.94 | 1.01 | 0.941 | 0.954 | 0.999 | 4.88 | 4.81 | 5.49 | 5.58 | 4.56 | 4.64 |  |  |  |  |  |  | 
9 | C/C1=C/C(=O)O[C@@H]2C[C@@H](CC[C@H](C)/C=C\CC1)O[C@@](O)([C@@H]1CSC(=O)N1)C2 | 27.1 | 20.9 | 20.7 | 0.941 | 0.878 | 0.759 | 0.691 | 0.664 | 0.53 | 8.28 | 14.2 | 15.4 | 14.9 | 17.7 | 20 |  |  |  |  |  |  | 
10 | C[C@@H]1O[C@@H](O[C@H]2[C@H](O[C@H]3CC[C@@]4(C)[C@@H](CC[C@]5(C)[C@@H]4CC=C4[C@@H]6CC(C)(C)CC[C@]6(C(=O)O[C@@H]6O[C@H](CO[C@@H]7O[C@H](CO)[C@@H](O[C@@H]8O[C@@H](C)[C@H](O)[C@@H](O)[C@H]8O)[C@H](O)[C@H]7O)[C@@H](O)[C@H](O)[C@H]6O)CC[C@]45C)[C@]3(C)CO)OC[C@H](O)[C@@H]2O)[C@H](O)[C@H](O)[C@H]1O | 45.1 | 48.4 | 45.2 | 0.985 | 0.966 | 0.955 | 1 | 1.01 | 1.04 | 3.46 | 5.62 | 3.28 | 3.16 | 3.23 | 2.9 |  |  |  |  |  |  | 
11 | O=C(O)CCCc1ccc(N(CCCl)CCCl)cc1 | 50.2 | 44.6 | 36.8 | 0.967 | 0.951 | 0.908 | 0.881 | 0.837 | 0.784 | 4.38 | 5.9 | 8 | 10.4 | 10.8 | 12.6 |  |  |  |  |  |  | 
12 | C=C1[C@@H](C)[C@H]2[C@H](Cc3ccccc3)NC(=O)[C@]23[C@H](OC(C)=O)/C=C/[C@@](C)(O)C(=O)[C@@H](C)C/C=C/[C@H]3[C@@H]1O | 24.3 | 26 | 27.2 | 0.575 | 0.517 | 0.557 | 0.623 | 0.562 | 0.494 | 14.5 | 15.6 | 16.1 | 17.4 | 18.8 | 19.2 |  |  |  |  |  |  | 
13 | S=P(N1CC1)(N1CC1)N1CC1 | 39.2 | 31 | 32.9 | 1.06 | 0.967 | 0.939 | 0.904 | 0.942 | 0.856 | 3.3 | 3.39 | 3.97 | 4.44 | 5.38 | 7.45 |  |  |  |  |  |  | 
14 | CC[C@@]1(O)C(=O)OCc2c1cc1n(c2=O)Cc2cc3ccccc3nc2-1 | 19.7 |  | 21.5 |  | 0.476 ± 0.059 |  | 0.379 ± 0.037 |  | 0.351 ± 0.028 |  | 12.4 ± 0.52 |  | 13.7 ± 0.32 |  | 15.5 ± 0.56 | 19.5 | 0.694 ± 0.18 | 0.516 ± 0.026 | 0.503 ± 0.036 | 7.71 ± 3.2 | 9.83 ± 1.2 | 10.3 ± 0.47
15 | O=C(O)CSc1cc(NS(=O)(=O)c2ccc(Br)cc2)c2ccccc2c1O | 44 | 35.2 | 25.1 | 0.954 | 0.952 | 0.961 | 0.926 | 0.881 | 0.694 | 4.65 | 5.25 | 6.44 | 7.75 | 8.94 | 11.1 |  |  |  |  |  |  | 
16 | CC[C@H]1CN2CCc3cc(OC)c(OC)cc3[C@@H]2C[C@@H]1C[C@H]1NCCc2cc(OC)c(OC)cc21.Cl.Cl.O | 15.2 | 16 | 16.6 | 0.51 | 0.489 | 0.482 | 0.462 | 0.462 | 0.433 | 18.4 | 18.9 | 19.4 | 20.8 | 20.8 | 20.6 |  |  |  |  |  |  | 
17 | C/C(=C\c1csc(C)n1)[C@@H]1C[C@@H]2O[C@]2(C)CCC[C@H](C)[C@H](O)[C@@H](C)C(=O)C(C)(C)[C@@H](O)CC(=O)O1 | 21.8 | 21.4 | 21.2 | 0.22 | 0.223 | 0.284 | 0.468 | 0.553 | 0.521 | 21.1 | 20.7 | 22.7 | 22.5 | 23.6 | 23.9 |  |  |  |  |  |  | 
18 | Nc1nc(Cl)nc2c1ncn2[C@H]1C[C@H](O)[C@@H](CO)O1 | 30.2 | 34.5 | 33.3 | 0.638 | 0.588 | 0.583 | 0.555 | 0.55 | 0.539 | 12.6 | 13.3 | 13.6 | 14 | 14.8 | 15.2 |  |  |  |  |  |  | 
19 | Oc1ccc2ccccc2c1SSc1c(O)ccc2ccccc12 | 44.4 | 37.5 | 18 | 0.996 | 0.924 | 0.926 | 0.901 | 0.812 | 0.245 | 5.34 | 4.94 | 7.79 | 8.22 | 9.14 | 14 |  |  |  |  |  |  | 
20 | Cn1ncnc2c(=O)n(C)c(=O)nc1-2 | 16.9 | 16.5 | 14.2 | 0.575 | 0.386 | 0.0951 | 0.0345 | 0.021 | 0.0323 | 14.5 | 14 | 15.7 | 30 | 30.1 | 29 |  |  |  |  |  |  | 
21 | C[C@@H]1O[C@@H](O[C@H]2[C@H](OC(=O)[C@]34CCC(C)(C)C[C@H]3C3=CC[C@@H]5[C@@]6(C)C[C@H](O)[C@H](O[C@@H]7O[C@H](CO)[C@@H](O)[C@H](O)[C@H]7O)[C@@](C)(CO)[C@@H]6CC[C@@]5(C)[C@]3(C)CC4)O[C@H](CO)[C@@H](O)[C@@H]2O)[C@H](O)[C@H](O)[C@H]1O[C@@H]1OC[C@@H](O)[C@H](O)[C@H]1O | 52.4 | 46.4 | 51 | 0.996 | 0.972 | 0.947 | 0.97 | 0.984 | 0.999 | 4.19 | 4.7 | 5.42 | 5.5 | 6.76 | 3.23 |  |  |  |  |  |  | 
